For 30 compounds, IC50 results are on record in ChEMBL document CHEMBL1158549, “Synthesis and evaluation of a series of C5'-substituted duocarmycin SA analogs” (Bioorg Med Chem Lett, 2010).

Molecules are shown by their SMILES.

The assay has as its system L1210. As to the kind of experiment: Cytotoxicity against mouse L1210 cells. It counts as functional, cell-based.
`COC(=O)c1cc2c([nH]1)C(=O)C=C1N(C(=O)c3cc4cc(O)c(OC)cc4[nH]3)C[C@H]3C[C@]123` had a half-inhibitory concentration (IC50) of 0.033 nM. With `COC(=O)c1cc2c3c(cc(O)c2[nH]1)N(C(=O)c1cc2ccccc2[nH]1)C[C@H]3CCl` the figure was 0.072 nM. The compound `COC(=O)c1cc2c3c(cc(O)c2[nH]1)N(C(=O)c1cc2cc(C(F)(F)F)ccc2[nH]1)C[C@H]3CCl` returned a concentration for half-maximal inhibition (IC50) of 0.075 nM. With `COC(=O)c1cc2c3c(cc(O)c2[nH]1)N(C(=O)c1cc2cc(C(C)=O)ccc2[nH]1)C[C@H]3CCl` the figure was 0.038 nM; with `COC(=O)c1cc2c([nH]1)C(=O)C=C1N(C(=O)c3cc4cc([N+](=O)[O-])ccc4[nH]3)C[C@H]3C[C@]123`, 0.041 nM; with `COC(=O)c1cc2c([nH]1)C(=O)C=C1N(C(=O)c3cc4cc(F)ccc4[nH]3)C[C@H]3C[C@]123`, 0.054 nM.

Consider `COC(=O)c1cc2c3c(cc(O)c2[nH]1)N(C(=O)c1cc2cc(S(C)(=O)=O)ccc2[nH]1)C[C@H]3CCl`, for which half-maximal inhibition (IC50) required 0.058 nM. With `COC(=O)c1ccc2[nH]c(C(=O)N3C[C@H]4C[C@@]45C3=CC(=O)c3[nH]c(C(=O)OC)cc35)cc2c1` the figure was 0.047 nM; with `COC(=O)c1cc2c3c(cc(O)c2[nH]1)N(C(=O)c1cc2cc(C#N)ccc2[nH]1)C[C@H]3CCl`, 0.009 nM.

On to `CNC(=O)c1ccc2[nH]c(C(=O)N3C[C@@H](CCl)c4c3cc(O)c3[nH]c(C(=O)OC)cc43)cc2c1`, for which the IC50 was determined as 0.061 nM. In the case of `COC(=O)c1cc2c([nH]1)C(=O)C=C1N(C(=O)c3cc4cc(C)ccc4[nH]3)C[C@H]3C[C@]123` it was 0.077 nM. Compound `COC(=O)c1cc2c([nH]1)C(=O)C=C1N(C(=O)c3cc4cc(C#N)ccc4[nH]3)C[C@H]3C[C@]123` came in with an IC50 of 0.007 nM.

`COC(=O)c1cc2c3c(cc(O)c2[nH]1)N(C(=O)c1cc2cc(O)ccc2[nH]1)C[C@H]3CCl` registered an IC50 of 0.05 nM. With `COC(=O)c1cc2c([nH]1)C(=O)C=C1N(C(=O)c3cc4cc(C(C)=O)ccc4[nH]3)C[C@H]3C[C@]123` the figure was 0.043 nM. `COC(=O)c1cc2c([nH]1)C(=O)C=C1N(C(=O)c3cc4cc(OC)c(OC)c(OC)c4[nH]3)C[C@H]3C[C@]123` [DUOCARMYCIN] showed a half-maximal inhibitory concentration (IC50) of 0.006 nM. `COC(=O)c1ccc2[nH]c(C(=O)N3C[C@@H](CCl)c4c3cc(O)c3[nH]c(C(=O)OC)cc43)cc2c1`: the IC50 was 0.048 nM. On to `COC(=O)c1cc2c([nH]1)C(=O)C=C1N(C(=O)c3cc4cc(O)ccc4[nH]3)C[C@H]3C[C@]123`, for which the IC50 came to 0.053 nM. In the case of `COC(=O)c1cc2c([nH]1)C(=O)C=C1N(C(=O)c3cc4cc(OC)c(O)cc4[nH]3)C[C@H]3C[C@]123` it was 0.007 nM. In the case of `COC(=O)c1cc2c([nH]1)C(=O)C=C1N(C(=O)c3cc4cc(OC(F)(F)F)ccc4[nH]3)C[C@H]3C[C@]123` it was 0.049 nM. In the case of `COC(=O)c1cc2c3c(cc(O)c2[nH]1)N(C(=O)c1cc2cc(NC(C)=O)ccc2[nH]1)C[C@H]3CCl` it was 0.081 nM. Consider `COC(=O)c1cc2c([nH]1)C(=O)C=C1N(C(=O)c3cc4cc(OC)ccc4[nH]3)C[C@H]3C[C@]123`, for which the half-inhibitory concentration (IC50) is 0.0075 nM. `CNC(=O)c1ccc2[nH]c(C(=O)N3C[C@H]4C[C@@]45C3=CC(=O)c3[nH]c(C(=O)OC)cc35)cc2c1`: half-maximal inhibition (IC50) was put at 0.07 nM. In the case of `COC(=O)c1cc2c([nH]1)C(=O)C=C1N(C(=O)c3cc4ccccc4[nH]3)C[C@H]3C[C@]123` it was 0.068 nM.

With `COC(=O)c1cc2c([nH]1)C(=O)C=C1N(C(=O)c3cc4cc(NC(C)=O)ccc4[nH]3)C[C@H]3C[C@]123`, half-maximal inhibition (IC50) was put at 0.083 nM. The compound `COC(=O)c1cc2c([nH]1)C(=O)C=C1N(C(=O)c3cc4cc(S(C)(=O)=O)ccc4[nH]3)C[C@H]3C[C@]123` yielded a 50% inhibitory concentration (IC50) of 0.058 nM.

Take `COC(=O)c1cc2c([nH]1)C(=O)C=C1N(C(=O)c3cc4cc(C(F)(F)F)ccc4[nH]3)C[C@H]3C[C@]123`: the IC50 came out at 0.065 nM. With `COC(=O)c1cc2c3c(cc(O)c2[nH]1)N(C(=O)c1cc2cc(F)ccc2[nH]1)C[C@H]3CCl` the figure was 0.079 nM. As to `COC(=O)c1cc2c3c(cc(O)c2[nH]1)N(C(=O)c1cc2cc(OC(F)(F)F)ccc2[nH]1)C[C@H]3CCl`, the IC50 is 0.085 nM. On to `COC(=O)c1cc2c3c(cc(O)c2[nH]1)N(C(=O)c1cc2cc(C)ccc2[nH]1)C[C@H]3CCl`, for which the IC50 was 0.078 nM.

The compound `COC(=O)c1cc2c3c(cc(O)c2[nH]1)N(C(=O)c1cc2cc(OC)ccc2[nH]1)C[C@H]3CCl` gave an IC50 of 0.021 nM.

Usually IC50 stands for the concentration needed to halve the response being measured. Read a low IC50 as higher potency.
